Experimental data as given in ChEMBL document CHEMBL1127774, “2,3,6-Substituted quinazolinones as angiotensin II receptor antagonists” (Bioorg Med Chem Lett, 1994).

Tests used:
Angiotensin II receptor = biological target: T1, Angiotensin II receptor (Rattus norvegicus, UniProt P29089+P25095+P35351); test: Concentration required for 50% inhibition of binding against Angiotensin II receptor in the rat adrenal cortex tissue; assay type: tissue-based
T1 sequence (P29089 whole entry): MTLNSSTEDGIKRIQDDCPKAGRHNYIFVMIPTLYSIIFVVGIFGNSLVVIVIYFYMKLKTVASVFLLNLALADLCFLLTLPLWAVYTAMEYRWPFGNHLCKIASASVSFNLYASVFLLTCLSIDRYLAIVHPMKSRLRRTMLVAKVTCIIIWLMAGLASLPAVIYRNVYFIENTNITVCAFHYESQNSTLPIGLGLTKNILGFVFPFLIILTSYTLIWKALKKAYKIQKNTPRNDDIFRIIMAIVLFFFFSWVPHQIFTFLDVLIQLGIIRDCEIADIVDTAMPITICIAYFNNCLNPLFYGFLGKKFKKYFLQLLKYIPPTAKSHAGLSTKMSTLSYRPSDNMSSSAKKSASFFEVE
T1 sequence (P25095 whole entry): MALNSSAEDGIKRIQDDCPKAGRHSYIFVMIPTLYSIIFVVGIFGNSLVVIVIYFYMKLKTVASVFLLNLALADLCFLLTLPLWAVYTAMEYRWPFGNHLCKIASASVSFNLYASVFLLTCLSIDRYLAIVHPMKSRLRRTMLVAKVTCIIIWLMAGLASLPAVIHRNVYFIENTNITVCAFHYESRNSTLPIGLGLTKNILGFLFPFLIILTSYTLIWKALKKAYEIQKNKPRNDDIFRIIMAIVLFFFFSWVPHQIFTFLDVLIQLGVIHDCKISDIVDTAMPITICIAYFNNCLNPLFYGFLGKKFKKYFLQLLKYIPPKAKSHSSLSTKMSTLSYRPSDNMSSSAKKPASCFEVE
T1 sequence (P35351 whole entry): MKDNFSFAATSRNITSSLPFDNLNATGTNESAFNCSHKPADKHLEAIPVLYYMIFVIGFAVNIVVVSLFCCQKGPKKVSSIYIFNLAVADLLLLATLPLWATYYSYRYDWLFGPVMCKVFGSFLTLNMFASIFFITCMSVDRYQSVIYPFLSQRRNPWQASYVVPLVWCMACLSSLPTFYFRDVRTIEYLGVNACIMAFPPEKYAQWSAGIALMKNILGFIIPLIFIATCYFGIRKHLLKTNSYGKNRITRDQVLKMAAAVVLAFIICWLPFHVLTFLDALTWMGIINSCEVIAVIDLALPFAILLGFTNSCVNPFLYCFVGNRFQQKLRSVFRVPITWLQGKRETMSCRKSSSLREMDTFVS

[1] = biological target: T2, Type-1 angiotensin II receptor (Bos taurus, UniProt P25104); test: Concentration required for 50% inhibition of binding against Angiotensin II receptor in the bovine adrenal cortex tissue; assay type: tissue-based
T2 sequence (P25104 whole entry): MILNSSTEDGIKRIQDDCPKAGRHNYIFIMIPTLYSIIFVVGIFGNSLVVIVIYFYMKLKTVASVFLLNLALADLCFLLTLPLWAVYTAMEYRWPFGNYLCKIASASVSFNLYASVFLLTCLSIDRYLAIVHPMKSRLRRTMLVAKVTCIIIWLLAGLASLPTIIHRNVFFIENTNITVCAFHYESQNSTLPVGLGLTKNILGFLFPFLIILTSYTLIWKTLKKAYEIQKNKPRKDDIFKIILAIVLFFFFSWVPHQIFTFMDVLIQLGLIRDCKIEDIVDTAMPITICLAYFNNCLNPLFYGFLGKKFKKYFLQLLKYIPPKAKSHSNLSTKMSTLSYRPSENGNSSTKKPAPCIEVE

[2] = biological target: Type-1 angiotensin II receptor (Oryctolagus cuniculus) (UniProt P34976); test: Concentration required for inhibition […] against Angiotensin II receptor in rabbit aortic rings
Type-1 angiotensin II receptor (Oryctolagus cuniculus), sequence (P34976 whole entry, looked up): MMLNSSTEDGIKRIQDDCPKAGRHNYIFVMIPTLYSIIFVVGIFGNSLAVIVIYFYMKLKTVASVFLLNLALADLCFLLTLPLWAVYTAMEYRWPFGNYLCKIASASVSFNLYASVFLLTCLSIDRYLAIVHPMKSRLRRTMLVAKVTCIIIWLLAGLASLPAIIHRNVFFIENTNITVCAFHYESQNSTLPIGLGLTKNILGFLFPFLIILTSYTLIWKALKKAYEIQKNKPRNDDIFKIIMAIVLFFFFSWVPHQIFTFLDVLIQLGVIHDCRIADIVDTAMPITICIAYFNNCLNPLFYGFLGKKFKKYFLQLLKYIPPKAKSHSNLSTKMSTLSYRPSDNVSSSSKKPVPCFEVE

SMILES	IC50 (Angiotensin II receptor)	IC50 [1]	pA2 [2]
CCCCc1nc2ccc(CN)cc2c(=O)n1Cc1ccc(-c2ccccc2-c2nn[nH]n2)cc1	15 nM		
CCCCc1nc2ccc(C(C)(C)O)cc2c(=O)n1Cc1ccc(-c2ccccc2-c2nn[nH]n2)cc1	9 nM		
CCCCc1nc2ccc(COC)cc2c(=O)n1Cc1ccc(-c2ccccc2-c2nn[nH]n2)cc1	18 nM		
CCCCc1nc2ccc(C(CC)OC)cc2c(=O)n1Cc1ccc(-c2ccccc2-c2nn[nH]n2)cc1 (centres undefined)	5 nM		
CCCCc1nc2ccc(COc3ccccn3)cc2c(=O)n1Cc1ccc(-c2ccccc2-c2nn[nH]n2)cc1		130 nM	
CCCCc1nc2ccc(C(OC)c3ccccc3)cc2c(=O)n1Cc1ccc(-c2ccccc2-c2nn[nH]n2)cc1 (centres undefined)	9 nM		
CCCCc1nc2ccc(C(O)C(C)(C)C)cc2c(=O)n1Cc1ccc(-c2ccccc2-c2nn[nH]n2)cc1 (centres undefined)	1000 nM		
CCCCc1nc2ccc(C)cc2c(=O)n1Cc1ccc(-c2ccccc2-c2nn[nH]n2)cc1	10 nM		
CCCCc1nc2ccc(C(C)(C)OC)cc2c(=O)n1Cc1ccc(-c2ccccc2-c2nn[nH]n2)cc1 [CL-329167]	6 nM		8.01

Other lines, results leading:

IC50 (Angiotensin II receptor)	IC50 [1]	pA2 [2]	SMILES
14 nM			CCCCc1nc2ccc(C(C)N)cc2c(=O)n1Cc1ccc(-c2ccccc2-c2nn[nH]n2)cc1 (centres undefined)
12 nM			CCCCc1nc2ccc(C(O)CC)cc2c(=O)n1Cc1ccc(-c2ccccc2-c2nn[nH]n2)cc1 (centres undefined)
7 nM			CCCCc1nc2ccc(C(C)OC)cc2c(=O)n1Cc1ccc(-c2ccccc2-c2nn[nH]n2)cc1 (centres undefined)
10 nM			CCCCc1nc2ccc(CO)cc2c(=O)n1Cc1ccc(-c2ccccc2-c2nn[nH]n2)cc1
9 nM			CCCCc1nc2ccc(C(C)O)cc2c(=O)n1Cc1ccc(-c2ccccc2-c2nn[nH]n2)cc1 (centres undefined)
1000 nM			CCCCc1nc2ccc(C(O)CO)cc2c(=O)n1Cc1ccc(-c2ccccc2-c2nn[nH]n2)cc1 (centres undefined)
6 nM			CCCCc1nc2ccc(C(C)NC(C)=O)cc2c(=O)n1Cc1ccc(-c2ccccc2-c2nn[nH]n2)cc1 (centres undefined)
	130 nM		CCCCc1nc2ccc(COc3ccccc3)cc2c(=O)n1Cc1ccc(-c2ccccc2-c2nnn[nH]2)cc1
	330 nM		CCCCc1nc(Cl)c(CO)n1Cc1ccc(-c2ccccc2-c2nn[nH]n2)cc1 [LOSARTAN]
